One test concerns the target Helios (Homo sapiens, UniProt Q96SW2+Q9UKS7). As to the kind of experiment: Helios Cellular Degradation Assay (Helios readout). Also noted: endogenous in cells; host or cells: Jurkat. Conditions: Jurkat cells, 72 h incubation, Helios-PE antibody staining, flow cytometry; read-out: Helios Jurkat IC50. Format: cell-based. On the procedure:
(§1) Jurkat cells were plated at 80,000 cells/well in 40 μL RPMI+10% FBS in a 384 well cell culture plate prior to using acoustic dispensing technology for adding compound of interest. Cell cultures were incubated for 72 h at 37° C. and 5% C02. In order to facilitate analysis, cell cultures were spun down at 200 rpm for 5 min and the supernatant was discarded. After shaking the plate to dislodge the cell pellet, cells were resuspended in 50 μL of Fixation Buffer (eBioScience FoxP3 buffer set 00-5523-00) for 60 min at room temperature. After centrifuging and discarding the supernatant, cells were permeabilized with 50 μL of Permeabilization buffer (eBioScience FoxP3 buffer set 00-5523-00) for 10 min at room temperature. Following permeabilization, cells were spun down and the supernatant was replaced with 20 μL fluorescently labelled antibodies against Helios, Ikaros and Aiolos or corresponding Isotype controls in 1× Permeabilization buffer (Ikaros-Alexa488 [Biolegend, Cat #368408, 1:50], Helios-PE [CST, Cat #29360, 1:50], Aiolos-Alexa647 [Biolegend, Cat #371106Biolegend, 1:25]) and staining reactions were incubated for 1 h at room temperature; protected from light. Subsequently, 30 μL of 1× Permeabilization buffer was added prior to centrifuging the cells and discarding the supernatant. Stained cells were resuspended in 25 μL of flow cytometry staining buffer (PBS+0.2% BSA) and analyzed using an Intellicyt Ique Plus flow cytometer.
(In flow cytometry, cells or beads pass a laser one at a time.)

Another test concerns the target Ikaros (Homo sapiens, UniProt Q13422+Q96SW2). As to the kind of experiment: Helios Cellular Degradation Assay (Ikaros readout). Set-up: endogenous in cells; host or cells: Jurkat. The note with it: Jurkat cells, 72 h incubation, Ikaros-Alexa488 antibody staining, flow cytometry; read-out: Ikaros Jurkat IC50. Format: cell-based. On the procedure: as §1

For 13 compounds, DC50 results are on record in patent US12570671B2 (BRISTOL-MYERS SQUIBB COMPANY, priority 2020, dated 2026).

Sequence of Helios (Q9UKS7 whole entry): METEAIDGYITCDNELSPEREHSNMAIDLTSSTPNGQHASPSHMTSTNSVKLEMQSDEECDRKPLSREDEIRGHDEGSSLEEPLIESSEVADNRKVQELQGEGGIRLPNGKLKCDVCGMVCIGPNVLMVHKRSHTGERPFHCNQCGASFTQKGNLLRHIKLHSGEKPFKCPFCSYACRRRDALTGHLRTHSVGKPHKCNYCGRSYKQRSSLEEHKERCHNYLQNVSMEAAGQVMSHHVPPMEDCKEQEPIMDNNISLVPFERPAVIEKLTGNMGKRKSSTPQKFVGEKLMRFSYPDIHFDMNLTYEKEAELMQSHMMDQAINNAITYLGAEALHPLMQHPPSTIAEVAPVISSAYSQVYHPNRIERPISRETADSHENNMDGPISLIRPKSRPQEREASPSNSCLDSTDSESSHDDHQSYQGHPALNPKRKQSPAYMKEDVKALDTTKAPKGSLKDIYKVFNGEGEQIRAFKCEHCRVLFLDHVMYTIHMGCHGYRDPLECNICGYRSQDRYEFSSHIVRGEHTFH
Sequence of Helios (Q96SW2 whole entry): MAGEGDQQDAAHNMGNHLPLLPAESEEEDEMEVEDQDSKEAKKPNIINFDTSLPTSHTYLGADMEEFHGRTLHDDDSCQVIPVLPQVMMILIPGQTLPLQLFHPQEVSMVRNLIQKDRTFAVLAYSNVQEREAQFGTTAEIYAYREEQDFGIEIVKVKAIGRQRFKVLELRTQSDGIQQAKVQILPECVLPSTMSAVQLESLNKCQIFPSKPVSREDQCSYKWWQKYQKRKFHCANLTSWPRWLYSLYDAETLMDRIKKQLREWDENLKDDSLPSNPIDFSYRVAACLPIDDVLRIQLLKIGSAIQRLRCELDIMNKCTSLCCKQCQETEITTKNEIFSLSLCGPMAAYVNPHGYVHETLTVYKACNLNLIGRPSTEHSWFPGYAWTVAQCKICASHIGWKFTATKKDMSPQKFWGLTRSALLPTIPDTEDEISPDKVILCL
Sequence of Helios (Q16531 whole entry partner): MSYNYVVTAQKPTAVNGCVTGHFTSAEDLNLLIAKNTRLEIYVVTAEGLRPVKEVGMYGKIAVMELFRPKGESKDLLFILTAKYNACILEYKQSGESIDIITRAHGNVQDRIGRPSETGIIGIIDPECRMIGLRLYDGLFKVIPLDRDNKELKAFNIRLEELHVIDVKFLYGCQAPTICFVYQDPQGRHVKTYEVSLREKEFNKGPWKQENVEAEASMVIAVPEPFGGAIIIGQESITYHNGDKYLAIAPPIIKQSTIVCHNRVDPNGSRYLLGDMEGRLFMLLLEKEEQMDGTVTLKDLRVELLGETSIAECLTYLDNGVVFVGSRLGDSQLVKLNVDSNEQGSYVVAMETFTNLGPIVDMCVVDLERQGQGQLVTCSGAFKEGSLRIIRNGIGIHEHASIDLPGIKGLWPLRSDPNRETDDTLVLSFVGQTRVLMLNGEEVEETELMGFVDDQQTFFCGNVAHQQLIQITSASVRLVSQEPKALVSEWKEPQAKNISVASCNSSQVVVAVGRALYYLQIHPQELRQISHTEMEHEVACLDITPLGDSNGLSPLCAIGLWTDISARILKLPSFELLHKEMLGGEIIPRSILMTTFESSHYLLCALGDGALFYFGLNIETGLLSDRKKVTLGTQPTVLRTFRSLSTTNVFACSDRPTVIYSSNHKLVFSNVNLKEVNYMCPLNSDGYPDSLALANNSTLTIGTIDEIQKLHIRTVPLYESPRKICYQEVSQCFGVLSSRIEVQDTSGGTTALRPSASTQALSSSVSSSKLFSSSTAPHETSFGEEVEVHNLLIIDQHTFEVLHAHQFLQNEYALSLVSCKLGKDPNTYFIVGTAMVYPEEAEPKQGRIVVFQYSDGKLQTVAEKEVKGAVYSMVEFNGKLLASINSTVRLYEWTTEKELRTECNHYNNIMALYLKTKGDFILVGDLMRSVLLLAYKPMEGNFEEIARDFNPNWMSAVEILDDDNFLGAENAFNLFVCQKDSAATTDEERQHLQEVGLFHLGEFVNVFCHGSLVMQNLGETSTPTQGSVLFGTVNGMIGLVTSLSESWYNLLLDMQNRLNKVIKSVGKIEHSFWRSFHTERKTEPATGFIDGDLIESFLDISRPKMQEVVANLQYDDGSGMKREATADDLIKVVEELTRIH
Sequence of Ikaros (Q13422 whole entry): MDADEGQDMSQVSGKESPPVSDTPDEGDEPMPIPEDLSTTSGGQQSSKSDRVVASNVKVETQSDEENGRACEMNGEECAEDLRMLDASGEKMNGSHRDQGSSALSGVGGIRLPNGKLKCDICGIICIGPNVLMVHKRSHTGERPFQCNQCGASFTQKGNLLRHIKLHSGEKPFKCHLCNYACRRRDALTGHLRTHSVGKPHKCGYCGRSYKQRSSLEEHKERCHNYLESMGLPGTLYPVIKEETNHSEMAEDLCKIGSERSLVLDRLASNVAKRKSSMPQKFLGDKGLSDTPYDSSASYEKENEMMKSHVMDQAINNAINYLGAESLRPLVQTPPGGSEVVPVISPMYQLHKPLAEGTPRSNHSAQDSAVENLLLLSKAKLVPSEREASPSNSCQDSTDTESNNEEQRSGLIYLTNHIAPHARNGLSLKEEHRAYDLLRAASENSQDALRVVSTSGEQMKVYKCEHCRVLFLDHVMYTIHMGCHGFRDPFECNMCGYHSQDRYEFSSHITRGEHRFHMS
Sequence of Ikaros (Q96SW2 whole entry): as the sequence (Q96SW2 whole entry) above
Sequence of Ikaros (Q16531 whole entry partner): as the sequence (Q16531 whole entry partner) above

In the case of `COc1cc(-c2ccc3c(c2)CN(C2CCC(=O)NC2=O)C3=O)nc2ccccc12` (centres unmarked) [Example 12, 3-[5-(4-methoxyquinolin-2-yl)-1-oxo-2,3-dihydro-1H-isoindol-2-yl]piperidine-2,6-dione], the DC50 at Helios was 38 nM; at Ikaros, more than 20000 nM.
In the same order, the values of `CCNc1cc(C)cc(-c2ccc3c(c2)CN(C2CCC(=O)NC2=O)C3=O)n1` (centres unmarked) [Example 188, 3-(5-(6-(Ethylamino)-4-methylpyridin-2-yl)-1-oxoisoindolin-2-yl)piperidine-2,6-dione] are 40 nM and not below 10000 nM.
For `CCCc1cc(N)nc(-c2ccc3c(c2)CN(C2CCC(=O)NC2=O)C3=O)c1C#N` (centres unmarked) [Example 173, 6-amino-2-(2-(2,6-dioxopiperidin-3-yl)-1-oxoisoindolin-5-yl)-4-propylnicotinonitrile] the same measures were 120 nM and not below 10000 nM.
For `Nc1cc(CCl)cc(-c2ccc3c(c2)CN(C2CCC(=O)NC2=O)C3=O)n1` (centres unmarked) [Example 135, 3-{5-[6-amino-4-(chloromethyl)pyridin-2-yl]-1-oxo-2,3-dihydro-1H-isoindol-2-yl}piperidine-2,6-dione] the same measures were 230 nM and not below 10000 nM.
As for `O=C1CCC(N2Cc3cc(-c4ccc5c(n4)NC(=O)C5)ccc3C2=O)C(=O)N1` (centres unmarked) [Example 114, 3-(1-oxo-5-(2-oxo-2,3-dihydro-1H-pyrrolo[2,3-b]pyridin-6-yl)isoindolin-2-yl)piperidine-2,6-dione], the results for the DC50 at Helios and on Ikaros were 1120 nM and not below 10000 nM, respectively.
In the same order, the values of `Nc1cc2ccccc2c(-c2ccc3c(c2)CN([C@H]2CCC(=O)NC2=O)C3=O)n1` [Example 123, (S)-3-(5-(3-aminoisoquinolin-1-yl)-1-oxoisoindolin-2-yl)piperidine-2,6-dione] are 80 nM and not below 20000 nM.
Consider `O=C1CCC(N2Cc3cc(-c4nccc5cccnc45)ccc3C2=O)C(=O)N1` (centres unmarked) [Example 64, 3-[5-(1,7-naphthyridin-8-yl)-1-oxo-2,3-dihydro-1H-isoindol-2-yl]piperidine-2,6-dione], for which the DC50 at Helios and on Ikaros was more than 20000 nM throughout.
With `COc1nc2ccccc2nc1-c1ccc2c(c1)CN(C1CCC(=O)NC1=O)C2=O` (centres unmarked) [Example 94, 3-(5-(3-methoxyquinoxalin-2-yl)-1-oxoisoindolin-2-yl)piperidine-2,6-dione], the DC50 is 1070 nM on Helios and not below 20000 nM at Ikaros.
For `CN(C)Nc1cccc(-c2ccc3c(c2)CN(C2CCC(=O)NC2=O)C3=O)n1` (centres unmarked) [Example 138, 3-{5-[6-(2,2-dimethylhydrazin-1-yl)pyridin-2-yl]-1-oxo-2,3-dihydro-1H-isoindol-2-yl}piperidine-2,6-dione], the DC50 on Helios is 920 nM; at Ikaros it was not below 10000 nM.
In the case of `N#Cc1cccc(-c2ccc3c(c2)CN(C2CCC(=O)NC2=O)C3=O)n1` (centres unmarked) [Example 162, 6-(2-(2,6-dioxopiperidin-3-yl)-1-oxoisoindolin-5-yl)picolinonitrile], the DC50 is 2460 nM at Helios and not below 20000 nM at Ikaros.
Regarding `O=C1CCC(N2Cc3cc(-c4ccc5cccc(Cl)c5n4)ccc3C2=O)C(=O)N1` (centres unmarked) [Example 34, 3-[5-(8-chloroquinolin-2-yl)-1-oxo-2,3-dihydro-1H-isoindol-2-yl]piperidine-2,6-dione], the DC50 was 70 nM at Helios and more than 20000 nM at Ikaros.
Consider `N#Cc1cnc(-c2ccc3c(c2)CN(C2CCC(=O)NC2=O)C3=O)c2ccccc12` (centres unmarked) [Example 90, -(2-(2,6-dioxopiperidin-3-yl)-1-oxoisoindolin-5-yl)isoquinoline-4-carbonitrile], for which the DC50 came out at 20 nM on Helios and 410 nM on Ikaros.
For `O=C1CCC(N2Cc3cc(-c4ccc5cc(O)ccc5n4)ccc3C2=O)C(=O)N1` (centres unmarked) [Example 40, 3-[5-(6-hydroxyquinolin-2-yl)-1-oxo-2,3-dihydro-1H-isoindol-2-yl]piperidine-2,6-dione] the same measures were 19 nM and more than 20000 nM.
